According to patent publication US7214712B2, “Isophthalic acid derivatives as matrix metalloproteinase inhibitors” (Warner-Lambert Company, priority 2001, dated 2007):
pIC50: −log10 of the molar value.

Key:
[1] = molecular target: T1, MMP-1FL (full length interstitial collagenase) (Homo sapiens, UniProt P03956); experiment: Thiopeptolide substrate hydrolysis assay, MMP-1FL; format: biochemical; conditions: HEPES pH 7.0, 22° C.
T1 sequence (P03956 100-469): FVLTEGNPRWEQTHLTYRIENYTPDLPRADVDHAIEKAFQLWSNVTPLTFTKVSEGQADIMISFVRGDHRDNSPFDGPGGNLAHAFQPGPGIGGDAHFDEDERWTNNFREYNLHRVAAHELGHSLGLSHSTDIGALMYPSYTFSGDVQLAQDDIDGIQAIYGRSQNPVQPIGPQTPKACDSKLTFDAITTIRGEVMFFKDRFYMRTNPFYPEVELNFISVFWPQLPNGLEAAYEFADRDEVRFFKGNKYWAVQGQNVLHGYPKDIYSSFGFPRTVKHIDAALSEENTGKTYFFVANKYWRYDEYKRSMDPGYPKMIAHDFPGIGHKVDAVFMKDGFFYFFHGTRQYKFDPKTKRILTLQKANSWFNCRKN
Description: Several representative compounds have been evaluated for their ability to inhibit various matrix metalloproteinase enzymes.

[2] = molecular target: MMP-3CD (catalytic domain of stromelysin-1) (Homo sapiens, UniProt P08254); experiment: Thiopeptolide substrate hydrolysis assay, MMP-3CD; format: biochemical; conditions: 50 mM MES pH 6.0
Chain of MMP-3CD (catalytic domain of stromelysin-1) (P08254 100-272 limits assumed): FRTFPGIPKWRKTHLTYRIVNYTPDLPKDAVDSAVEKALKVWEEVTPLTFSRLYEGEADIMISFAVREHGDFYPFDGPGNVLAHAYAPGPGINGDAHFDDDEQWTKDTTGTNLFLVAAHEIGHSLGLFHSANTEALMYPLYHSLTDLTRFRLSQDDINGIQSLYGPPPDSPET
Experimental: It should be appreciated that the assay buffer used with MMP-3CD was 50 mM N-morpholinoethanesulfonate (“MES”) at pH 6.0 rather than the HEPES buffer at pH 7.0 described above.

[3] = molecular target: MMP-13CD (catalytic domain of collagenase-3) (Homo sapiens, UniProt P45452); experiment: Thiopeptolide substrate hydrolysis assay, MMP-13CD; format: biochemical; conditions: HEPES pH 7.0, 22° C.
Experimental: The assays measure the amount by which a test compound reduces the hydrolysis of a thiopeptolide substrate caused by a matrix metalloproteinase enzyme.
Thiopeptolide substrates show virtually no decomposition or hydrolysis in the absence of a matrix metalloproteinase enzyme. A typical thiopeptolide substrate commonly utilized for assays is Ac-Pro-Leu-Gly-thioester-Leu-Leu-Gly-OEt. A 100-μL assay mixture will contain 50 mM of N-2-hydroxyethylpiperazine-N′-2-ethanesulfonic acid (“HEPES,” pH 7.0), 10 mM CaCl2, 100 μM thiopeptolide substrate, and 1 mM 5,5′-dithio-bis-(2-nitro-benzoic acid) (DTNB). […] Assays are carried out with and without matrix metalloproteinase inhibitor compounds, and the amount of hydrolysis is compared for a determination of inhibitory activity of the test compounds.

Row | melting point [°C] | pIC50 [1] | pIC50 [2] | pIC50 [3] | Compound
1 | 68 to 70 |  |  |  | COc1cccc(COC(=O)c2cccc(C(=O)OCc3cccc(OC)c3)c2)c1 [Example 13, Isophthalic acid bis-(3-methoxy-benzyl) ester]
2 | 81 to 82 |  |  |  | O=C(OCc1cccc(F)c1)c1cccc(C(=O)OCc2cccc(F)c2)c1 [Example 11, Isophthalic acid bis-(3-fluoro-benzyl) ester]
3 | 175 to 176 |  |  |  | COc1ccc(CNC(=O)c2cccc(C(=O)NCc3ccc(OC)cc3)c2)cc1 [Example 16, N,N′-Bis-(4-methoxy-benzyl)-isophthalamide]
4 | 128 to 130 |  |  |  | O=C(NCc1cccc(Cl)c1)c1cccc(C(=O)NCc2cccc(Cl)c2)c1 [Example 18, N,N′-Bis-(3-chloro-benzyl)-isophthalamide]
5 | 90 to 92 |  |  |  | COc1ccc(COC(=O)c2cccc(C(=O)OCc3ccc(OC)cc3)c2)cc1 [Example 12, Isophthalic acid bis-(4-methoxy-benzyl) ester]
6 |  | < 4.00 |  |  | O=C(NCc1ccc2c(c1)OCO2)c1cccc(C(=O)NCc2ccc3c(c2)OCO3)c1 [Example 28, N,N′-Bis-1,3-benzodioxol-5-ylmethyl-isophthalamide]
7 |  | < 4.00 | < 4.00 | 6.55 | 4-Methoxy-N,N′-bis-(4-methoxy-benzyl)-isophthalamide [Example 24]
8 | 138 to 140 |  |  |  | O=C(NCc1cccc(F)c1)c1cccc(C(=O)NCc2cccc(F)c2)c1 [Example 17, N,N′-Bis-(3-fluoro-benzyl)-isophthalamide]
9 |  | < 4.00 | < 4.00 |  | COc1cccc(CNC(=O)c2cccc(C(=O)NCc3cccc(OC)c3)c2)c1 [Example 30, N,N′-Bis-(3-methoxy-benzyl)-isophthalamide]
10 |  | < 4.00 |  |  | O=C(NCc1ccc2c(c1)OCO2)c1cccc(C(=O)NCc2ccc3c(c2)OCO3)c1 [Example 19, N,N′-Bis-1,3-benzodioxol-5-ylmethyl-isophthalamide]
11 | 109 to 110 |  |  |  | O=C(OCc1ccc2c(c1)OCO2)c1cccc(C(=O)OCc2ccc3c(c2)OCO3)c1 [Example 14, Isophthalic acid bis-(1,3-benzodioxol-5-ylmethyl) ester]
12 |  | < 4.00 | < 4.00 | 5.56 | N,N′-Bis-(4-methoxy-benzyl)-isophthalamide [Example 39]
13 |  | < 4.00 | < 4.00 |  | CCOc1ccc(C(=O)NCc2cccc(OC)c2)cc1C(=O)NCc1cccc(OC)c1 [Example 64, 4-Ethoxy-N′1,N″3-bis-(3-methoxy-benzyl)-isophthalamide]
14 | 136 to 138 |  |  |  | O=C(NCc1ccc(Cl)cc1)c1cccc(C(=O)NCc2ccc(Cl)cc2)c1 [Example 10, N,N′-Bis-(4-chloro-benzyl)-isophthalamide]

Row | Compound | melting point [°C] | pIC50 [1] | pIC50 [2] | pIC50 [3]
15 | COc1ccc(C(=O)OCc2ccc3nsnc3c2)cc1C(=O)OCc1ccc2nsnc2c1 [Example 69, 4-Methoxy-isophthalic acid di-2,1,3-benzothiadiazol-5-ylmethyl ester] |  | 4.52 |  | 
16 | O=C(OCc1ccc2nsnc2c1)c1cccc(C(=O)OCc2ccc3nsnc3c2)c1 [Example 3, Isophthalic acid di-(2,1,3-benzothiadiazol-5-yl)methyl ester] |  | < 4.00 | < 4.52 | 
17 | COc1ccc(C(=O)OCc2ccncc2)cc1C(=O)OCc1ccncc1 [Example 5, 4-Methoxy-isophthalic acid dipyridin-4-ylmethyl ester] |  | < 4.00 | < 4.00 | 6.59
